Reference: US8367069B2, “Cytotoxic T cell defined EGFR peptide and an optimized derivative peptide” (University of Pittsburgh—of the Commonwealth System of …, priority 2008, dated 2013)

Experiments:
T2 cells = experiment: IFN-γ ELISPOT, CTL recognition of polypeptide pulsed T2 cells; format: cell-based, human; conditions: T2 cells pulsed with the polypeptide; 10 μg/ml at 37° C.
Method: In vitro stimulation (IVS) was performed using EGFR853-861 (i.e., SEQ ID NO: 1, wherein the residue at position 2 is threonine) or EGFR853-861L (i.e., SEQ ID NO: 1, wherein the residue at position 2 is leucine) to induce cytotoxic T lymphocytes (CTL) using CD8+PBMC from five HLA-A*0201^+ healthy donors and one head and neck squamous cell carcinoma (SCCHN) patient. The resulting EGFR-specific CTL were tested for EGFR853-861 specificity and HLA class I antigen restriction using polypeptide pulsed T2 cells. CTL generated against EGFR853-861 polypeptide recognized T2 cells pulsed with either EGFR853-861 or EGFR853-861L polypeptide, but not T2 cells alone or T2 cells incubated with the HIV Pol476-484 polypeptide (10 μg/ml at 37° C.) (see FIGS. 6A and 6B). […]
PBMCs were isolated by density centrifugation on Ficoll-Paque™ PLUS (GE Healthcare Bio-Science AB; SE-751 84 Uppsala) and used to prepare mature DCs using methods described in the art. […] The stimulated CD8^+ T cells were analyzed for specificity in IFN-γ ELISPOT and ^51Cr release assays at day 21 and then every 7 days thereafter.
The recognition of APCs pulsed with polypeptide (EGFR853-861 or EGFR853-861L) and head and neck tumor cells was assessed by ELISPOT assays specific for hu-IFN-γ. […]

EGFR family = experiment: Cross-reactivity of polypeptide-derived CTL; format: cell-based, human
HLA-A*0201 = HLA-A*0201 (Homo sapiens, UniProt P04439, D140Y/D185E/D98H/E176V/E277Q/G131W/G231S/I119V/I121R/I166T/I218V/L300P/L318F/N151K/N90K/P208A/P217A/Q86G/Q94H/R138H/R169H/T345S); conditions: cited from earlier work
PCI-30 = experiment: IFN-γ ELISPOT, stimulated CD8+ T cells against PCI-30 head and neck tumor cells; format: cell-based, human; conditions: substance added to CTL plus PCI-30 cells
Method: PBMCs were isolated by density centrifugation on Ficoll-Paque™ PLUS (GE Healthcare Bio-Science AB; SE-751 84 Uppsala) and used to prepare mature DCs using methods described in the art. PBMCs were resuspended at 5×10^7/ml in AIM-V medium (Invitrogen) and were incubated for 90 min in 75-cm^2 tissue culture flasks or six-well plates (37° C.; 5% CO2). Non-adherent (T cell-enriched) cells were gently washed out with HBSS and subsequently frozen. The plastic adherent cells were cultured in AIM-V medium supplemented with 1000 units/ml rhGM-CSF and 1000 units/ml rhIL-4. […] The stimulated CD8^+ T cells were analyzed for specificity in IFN-γ ELISPOT and ^51Cr release assays at day 21 and then every 7 days thereafter.
After incubation at 37° C. in 5% CO2 for 40 hours (IFN-γ ELISPOT assays), cells were removed by washings with PBS-0.05% Tween 20 (PBS-T). Captured cytokine was detected at sites of its secretion by incubation for 4 hours with biotinylated mAb anti-hIFN-γ (7-B6-1; Mabtech) at 2 μg/ml in PBS-0.5% BSA. […] Spot numbers and spot sizes were automatically determined with the use of computer-assisted video image analysis.

## HIV Pol476-484: negative control peptide (AGADRQGTV; UniProt P04585 476-484, looked up, fragment)
T2 cells
  recognition of polypeptide pulsed T2 cells by CTL generated against EGFR853-861: not

## ITDFGLARL [HER2861-869]
EGFR family
  cross-reactivity of CTL derived from the polypeptide: demonstrated cross-reactivity
HLA-A*0201
  HLA-A*0201 binding: binds

## panitumumab
PCI-30
  change in IFN-γ spots on addition to CTLs (stimulated with EGFR853-861) and PCI-30 cells: increased
